Assay [1] has as its system serum growth hormone (GH). In words: In vivo GH release in pentobarbital anesthetized rats, i.v. injection. On the set-up: species or system rat. The note with it: sacrificed 10 min after injection, N = 6. As for the experimental part: (§1) Immature female Sprague-Dawley rats were obtained from the Charles River Laboratories (Wilmington, Mass.). After arrival they were housed at 25° C. with a 14:10 hour light:dark cycle. Water and Purina rat chow were available ad libitum. Pups were kept with their mothers until 21 days of age.
(§2) Twenty-six day old rats, six rats per treatment group, were anesthetized interperitoneally with 50 mg/kg of pentobarbital 20 minutes prior to i.v. treatment with peptide. Normal saline with 0.1% gelatin was the vehicle for intravenous (i.v.) injections of the peptides. The anesthetized rats, weighing 55-65 grams, were injected i.v. with the quantity of growth hormone releasing compounds indicated in Table 3. Injection was made as a 0.1 mL solution into the jugular vein.
(§3) All animals were sacrificed by guillotine 10 minutes after the final test injection (see Table 3). Trunk blood for the determination of blood GH levels was collected following decapitation. After allowing the blood to clot, it was centrifuged and the serum was separated from the clot. Serum was kept frozen until the day of sampling for radioimmunoassay (RIA) determination of growth hormone levels according to the following procedure, as developed by the National Institute of Arthritis, Diabetes and Digestive and Kidney Diseases (NIADDK).
Reagents are generally added to the RIA analysis tubes at a single sitting, at refrigerator temperature (about 4° C.) in the following sequence:
(b) "cold" (i.e., non-radioactive) standard or unknown serum sample to be analyzed,
(c) radio-iodinated growth hormone antigen, and
(d) growth hormone antiserum.
Reagent addition is generally carried out so that there is achieved a final RIA tube dilution of about 1:30,000 (antiserum to total liquid volume; vol:vol).
(§4) The mixed reagents are then typically incubated at room temperature (about 25° C.) for about 24 hours prior to addition of a second antibody (e.g., goat or rabbit anti-monkey gamma globulin serum) which binds to and causes precipitation of the complexed growth hormone antiserum. Precipitated contents of the RIA tubes are then analyzed for the number of counts in a specified period of time in a gamma scintillation counter. A standard curve is prepared by plotting number of radioactive counts versus growth hormone (GH) level. GH levels of unknowns are then determined by reference to the standard curve.
(§5) Serum GH was measured by RIA with reagents provided by the National Hormone and Pituitary Program.
Serum levels in Table 3 are recorded in ng/mL in terms of the rat GH standard of 0.61 International Units/mg (IU/mg). Data is recorded as the mean +/- standard error of the mean (SEM). Statistical analysis was performed with Student's t-test. In Table 3 the results shown are the average of studies with six rats.
The procedure of Example 2 was repeated.

Assay [2] has as its system serum growth hormone (GH). The assay can be described thus: In vivo GH release in rats, subcutaneous injection, sacrifice at +15 minutes. On the set-up: species or system rat. The note with it: Table 7, sacrifice +15 minutes, N = 6. The protocol: as §1, §2, §3, §4, §5
The general procedure of Example 2 was followed except the peptides were injected subcutaneously rather than intravenously and the sacrifice time was +15 minutes rather than +10 minutes.

Setting [3] is: Table 5, total dose 0.30 μg i.v.
Setting [4] is: Table 5, total dose 3.00 μg i.v.
Where [5] appears, read: Table 6, total dose 0.30 μg i.v.
Where [6] appears, read: Table 6, total dose 1.00 μg i.v.
The mark [7] stands for this setting: Table 5, total dose 0.10 μg i.v.
Where [8] appears, read: Table 5, total dose 1.00 μg i.v.

“And” between values parts separate entries of the source, which are not always exact repeats. Equal values may be shown once.

The results in this text go back to patent US5776901A, “Polypeptide analogues having growth hormone releasing activity” (Administrators of the Tulane Educational Fund, priority 1992, dated 1998).

Regarding DAla-Tcc-Ala-Trp-DPhe-Lys-NH2, the figures for the “GH Released Serum GH” value in assay [1] (setting [3]) and in assay [1] (setting [4]) were 149 ng/mL and 142 ng/mL, respectively.
Regarding DAla-DμNal-Ala-Trp-LysNH2, the “GH Released Serum GH” value in assay [1] (setting [5]) is 187 ng/mL; in assay [1] (setting [6]), 257 ng/mL; in assay [1] (Table 6, total dose 3.00 μg i.v.), 198 ng/mL; in assay [1] (Table 6, total dose 10.00 μg i.v.), 193 ng/mL; in assay [1] (Table 6, total dose 30.00 μg i.v.) it was 236 ng/mL.
γABU-DβNal-Ala-Phe-DPhe-Lys-NH2: the “GH Released Serum GH + SEM” value came to 1127 ± 110 ng/mL in assay [2] (total dose 1.00 μg s.c.), 197 ± 31 ng/mL in assay [2] (total dose .03 μg s.c.), 182 ± 20 ng/mL in assay [2] (total dose .10 μg s.c.) and 524 ± 116 ng/mL in assay [2] (total dose .30 μg s.c.).
For α,γABU-DβNal-Ala-Trp-DPhe-LysNH2, the “GH Released Serum GH” value in assay [1] (Table 6, total dose 0.03 μg i.v.) was 621 ng/mL; in assay [1] (Table 6, total dose 0.10 μg i.v.) it was 1230 ng/mL; in assay [1] (setting [5]) it was 2385 ng/mL; in assay [1] (setting [6]) it was 3011 ng/mL.
With 3Me-His-DβNal-Ala-Trp-DPhe-Lys-NH2, the “GH Released Serum GH” value in assay [1] (Table 5, total dose 0.03 μg i.v.) is 122 ng/mL and 134 ng/mL; in assay [1] (setting [7]) it was 185 ng/mL and 112 ng/mL and 159 ng/mL; in assay [1] (setting [3]), 101 ng/mL and 78 ng/mL; in assay [1] (setting [8]), 134 ng/mL.
Take αγABU-DβNal-Ala-Phe-DPhe-Lys-NH2: the “GH Released Serum GH + SEM” value was found to be 1441 ± 203 ng/mL in assay [2] (total dose 1.00 μg s.c.), 192 ± 29 ng/mL in assay [2] (total dose .03 μg s.c.), 288 ± 62 ng/mL in assay [2] (total dose .10 μg s.c.) and 461 ± 90 ng/mL in assay [2] (total dose .30 μg s.c.).
As for Tip-Ala-DβNal-Ala-Trp-DPhe-Lys-NH2, the “GH Released Serum GH” value in assay [1] (setting [7]) was 168 ng/mL; in assay [1] (setting [3]), 167 ng/mL; in assay [1] (setting [8]), 152 ng/mL; in assay [1] (setting [4]) it was 272 ng/mL.
